Results on eleven molecules are retold here after publication PMC11945486, “TAS1R2/TAS1R3 Single-Nucleotide Polymorphisms Affect Sweet Taste Receptor Activation by Sweeteners: The SWEET Project” (Nutrients, 2025).

No end group written: not given here.

The test has as its target T1, human TAS1R2-I191V/TAS1R3-WT (Homo sapiens, UniProt Q7RTX0+Q8TE23, I191V).
T1 construct: expressed in transfected cells; host or cells: HEK293T-Gα16gust44
T1 sequence (Q8TE23 20-839 I191V): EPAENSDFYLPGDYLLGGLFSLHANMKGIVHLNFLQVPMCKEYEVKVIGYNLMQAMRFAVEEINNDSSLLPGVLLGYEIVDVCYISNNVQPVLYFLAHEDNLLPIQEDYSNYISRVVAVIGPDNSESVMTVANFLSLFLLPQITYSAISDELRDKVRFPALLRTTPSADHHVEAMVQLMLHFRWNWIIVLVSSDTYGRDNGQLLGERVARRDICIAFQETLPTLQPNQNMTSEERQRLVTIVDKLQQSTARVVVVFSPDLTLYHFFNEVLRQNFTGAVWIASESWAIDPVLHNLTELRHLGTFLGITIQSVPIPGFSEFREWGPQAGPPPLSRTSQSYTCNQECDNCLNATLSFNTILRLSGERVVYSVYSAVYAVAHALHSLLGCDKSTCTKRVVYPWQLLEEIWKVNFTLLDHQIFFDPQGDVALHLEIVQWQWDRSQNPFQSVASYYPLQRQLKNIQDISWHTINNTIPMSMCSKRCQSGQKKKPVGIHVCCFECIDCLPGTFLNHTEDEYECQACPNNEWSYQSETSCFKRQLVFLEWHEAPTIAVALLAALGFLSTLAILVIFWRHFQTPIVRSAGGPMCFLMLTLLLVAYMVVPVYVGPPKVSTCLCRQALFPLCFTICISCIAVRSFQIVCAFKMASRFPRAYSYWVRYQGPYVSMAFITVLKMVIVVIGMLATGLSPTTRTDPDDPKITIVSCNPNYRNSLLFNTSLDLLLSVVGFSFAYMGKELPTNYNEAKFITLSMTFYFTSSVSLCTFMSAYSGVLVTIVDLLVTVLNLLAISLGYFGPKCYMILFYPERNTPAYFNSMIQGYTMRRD
T1 sequence (Q7RTX0 21-852): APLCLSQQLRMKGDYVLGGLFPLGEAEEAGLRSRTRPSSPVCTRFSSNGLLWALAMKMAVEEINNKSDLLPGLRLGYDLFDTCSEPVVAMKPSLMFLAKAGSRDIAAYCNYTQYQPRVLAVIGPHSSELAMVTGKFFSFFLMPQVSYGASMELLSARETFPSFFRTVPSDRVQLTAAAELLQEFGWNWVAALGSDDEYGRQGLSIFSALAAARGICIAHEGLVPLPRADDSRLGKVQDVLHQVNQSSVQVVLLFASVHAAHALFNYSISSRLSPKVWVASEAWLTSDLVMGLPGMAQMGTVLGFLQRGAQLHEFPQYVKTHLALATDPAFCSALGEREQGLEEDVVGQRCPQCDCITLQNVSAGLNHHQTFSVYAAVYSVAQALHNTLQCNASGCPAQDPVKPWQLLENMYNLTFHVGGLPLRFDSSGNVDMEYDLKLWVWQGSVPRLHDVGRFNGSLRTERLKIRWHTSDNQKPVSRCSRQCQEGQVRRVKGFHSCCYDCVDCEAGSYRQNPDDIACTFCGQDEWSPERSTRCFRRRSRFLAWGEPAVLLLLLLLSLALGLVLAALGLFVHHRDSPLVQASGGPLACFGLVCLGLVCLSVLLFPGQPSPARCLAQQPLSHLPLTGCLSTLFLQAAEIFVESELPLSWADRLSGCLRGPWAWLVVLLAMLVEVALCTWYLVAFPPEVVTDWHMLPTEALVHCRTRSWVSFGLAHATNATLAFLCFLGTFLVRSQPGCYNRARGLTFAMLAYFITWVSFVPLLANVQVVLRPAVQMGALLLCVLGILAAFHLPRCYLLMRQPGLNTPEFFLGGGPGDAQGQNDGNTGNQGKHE
In words: Calcium mobilisation assay, TAS1R2 variant I191V with TAS1R3-WT. Type of test: cell-based. As to conditions: for Max ΔF/F0: maximal signal amplitude. From the text:
The coding sequences for TAS1R2 and TAS1R3 were commercially synthesised, and the human codon was optimised for expression in human cells. The coding sequences of human TAS1R2 and TAS1R3 were subcloned and inserted into the mammalian expression vectors pcDNA6/myc-HisA and pcDNA4/myc-HisA (Invitrogen; Thermo Fisher Scientific; Illkirch, France) between the EcoRI and NotI restriction sites, generating the plasmids pcDNA6-TAS1R2 and pcDNA4-TAS1R3, respectively. To increase protein expression in mammalian cells, an upstream start codon was used, which was a sequence called MAX, corresponding to the QBI SP163 element also described in pcDNA4-HisMax (Invitrogen; Thermo Fisher Scientific; Illkirch, France). To measure the expression level of the receptor by immunohistochemistry, we used the FLAG sequence ([…]) in the C-terminal position, which encodes the FLAG tag epitope. SNP variants of TAS1R2 and TAS1R3 were constructed based on […], respectively, using site-directed mutagenesis (Genewiz; Leipzig, Germany).
The HEK293T cells were kindly provided by Jay P. Slack (Givaudan Flavors Corporation; Cincinnati, OH, USA). HEK293T cells stably transfected with Gα16gust44 [43, 67] were seeded in poly-D-lysine-coated clear-bottom black 96-well plates (0.35 × 10^5 cells/well) in high-glucose DMEM supplemented with 2 mM GlutaMAX, 10% dialysed foetal bovine serum with penicillin/streptomycin and G418 (400 μg/mL) at 37 °C and 6.3% CO2 in a humidified atmosphere as previously reported. […] As a negative control, HEK293T cells were mock-transfected with the empty expression vector. After a further 24 h of incubation, the HEK293T cells were washed with C1 buffer (130 mM NaCl, 5 mM KCl, 10 mM HEPES pH 7.4 and 2 mM CaCl2). The 96-well plates containing the cells were then stimulated with sweet-tasting compounds. […] Different concentration ranges were tested depending on the sweet compound injected. The Ca^2+ changes were expressed as fractional changes in fluorescent light intensity: ΔF/F = (F − F0)/F0, where F was the fluorescent light intensity at each point, and F0 was the value of emitted fluorescent light prior to stimulus application. To calculate dose–response relationships, the changes in fluorescence upon stimulus application were averaged, mock-subtracted and baseline-corrected. The dose–response data obtained were adjusted using a 4-parameter logistic equation. The half-maximal effective concentrations (EC50 values) and maximal signal amplitudes were calculated using SigmaPlot software (version 15.0) (Systat Software; San Jose, CA, USA).
For in vitro calcium mobilisation assay performed on hTAS1R2-SNPs, hTAS1R3-SNPs and mTAS1R3-I60T, 6 to 7 concentrations were tested for each sweet compound, plus buffer alone. All concentration–receptor combinations were measured in duplicate, and each experiment was repeated at least 4 times (8 wells/concentration). Results were expressed for each concentration as ΔF/F mean ± SEM and represented as dose–response curves.
For orientation: Calcium assays in cells follow changes in intracellular calcium, usually with a dye or a luminescent sensor.

In the case of `CC1=CC(=O)NS(=O)(=O)O1` [Acesulfame K, acesulfame K], the 50% effective concentration (EC50) (as a rule, the concentration that produces a half-maximal response) amounted to 492 ± 30 µM; the “R1 = Variant EC50/WT EC50” value came to 0.7; the “Max ΔF/F0” value was 0.27 ± 0.01.
Regarding `O=S(=O)(O)NC1CCCCC1` [Cyclamate, cyclamate], the EC50 turned out to be 2020 ± 31 µM.
`C[C@H](CC[C@@H](O[C@@H]1O[C@H](CO[C@@H]2O[C@H](CO)[C@@H](O)[C@H](O)[C@H]2O)[C@@H](O)[C@H](O)[C@H]1O[C@@H]1O[C@H](CO)[C@@H](O)[C@H](O)[C@H]1O)C(C)(C)O)[C@H]1CC[C@@]2(C)[C@@H]3CC=C4[C@@H](CC[C@H](O[C@@H]5O[C@H](CO[C@@H]6O[C@H](CO)[C@@H](O)[C@H](O)[C@H]6O)[C@@H](O)[C@H](O)[C@H]5O)C4(C)C)[C@]3(C)[C@H](O)C[C@]12C` [Mogroside V, mogroside V]: the EC50 is 19.2 ± 1.7 µM, the “R1 = Variant EC50/WT EC50” value was found to be 1.1 and the “Max ΔF/F0” value was 1.33 ± 0.04.
As for `COc1ccc(CCC(=O)c2c(O)cc(O[C@@H]3O[C@H](CO)[C@@H](O)[C@H](O)[C@H]3O[C@@H]3O[C@@H](C)[C@H](O)[C@@H](O)[C@H]3O)cc2O)cc1O` [NHDC, neohesperidin dihydrochalcone], the EC50 was 109 ± 4.6 µM, the “R1 = Variant EC50/WT EC50” value worked out at 1.4 and the “Max ΔF/F0” value was found to be 0.73 ± 0.01.
Take `COC(=O)[C@H](Cc1ccccc1)NC(=O)[C@H](CC(=O)O)NCCC(C)(C)C` [Neotame]: the concentration for a half-maximal effect (EC50) stood at 0.84 ± 0.08 µM, the “R1 = Variant EC50/WT EC50” value was found to be 1.0 and the “Max ΔF/F0” value stood at 0.64 ± 0.02.
The matching figures for `C=C(C)[C@@H]1CC=C(/C=N/O)CC1` [Perillartine, perillartine]: 27.9 ± 0.5 µM, 1.6 and 1.27 ± 0.01.
On the same counts, the results for `C=C1C[C@@]23CC[C@H]4[C@@](C)(CCC[C@@]4(C)C(=O)O[C@@H]4O[C@H](CO)[C@@H](O)[C@H](O[C@@H]5O[C@H](CO)[C@@H](O)[C@H](O)[C@H]5O)[C@H]4O[C@@H]4O[C@H](CO)[C@@H](O)[C@H](O)[C@H]4O)[C@@H]2CC[C@]1(O[C@@H]1O[C@H](CO)[C@@H](O)[C@H](O[C@@H]2O[C@H](CO)[C@@H](O)[C@H](O)[C@H]2O)[C@H]1O[C@@H]1O[C@H](CO)[C@@H](O)[C@H](O)[C@H]1O)C3` [Rebaudioside M, rebaudioside M] are 21 ± 0.4 µM, 1.2 and 1.10 ± 0.01.
`OC[C@H]1O[C@H](O[C@]2(CCl)O[C@H](CCl)[C@@H](O)[C@@H]2O)[C@H](O)[C@@H](O)[C@H]1Cl` [Sucralose]: the EC50 is 87 ± 7 µM, the “R1 = Variant EC50/WT EC50” value stood at 1.0 and the “Max ΔF/F0” value is 0.52 ± 0.02.
On to “brazzein (QDKCKKVYENYPVSKCQLANQCNYDCKLDKHARSGECFYDEKRNLQCICDYCEY; ends and bridges not checked; cysteine pairing not given here; UniProt P56552 1-54, looked up) [sweet-tasting protein obtained by recombinant production using the yeast Pichia pastoris]”, for which the “R1 = Variant EC50/WT EC50” value came out at 1.7 and the “Max ΔF/F0” value turned out to be 1.12 ± 0.02.
For thaumatin, the “R1 = Variant EC50/WT EC50” value is on record as 1.0 and the “Max ΔF/F0” value is reported as 0.34 ± 0.02.

B1: thaumatin (protein)
chain: ATFEIVNRCSYTVWAAASKGDAALDAGGRQLNSGESWTINVEPGTKGGKIWARTDCYFDDSGSGICKTGDCGGLLRCKRFGRPPTTLAEFSLNQYGKDYIDISNIKGFNVPMDFSPTTRGCRGVRCAADIVGQCPAKLKAPGGGCNDACTVFQTSEYCCTTGKCGPTEYSRFFKRLCPDAFSYVLDKPTTVTCPGSSNYRVTFCPTA
modifications: Eight disulfides
notes: sweet-tasting plant protein, E957
For B1, the EC50 came to 7.7 ± 0.9 µM.
